Legend:
[1] = test system: muscle; conditions: other model systems; cited from earlier work
[2] = test system: patients with ALS; experiment: BENEFIT-ALS clinical trial: muscle strength mega-score; format: in vivo, human; conditions: for Muscle strength mega-score change from baseline (LS mean): based on percent change from baseline across several muscle groups
Description: (§1) BENEFIT-ALS was a multi-national, randomized, stratified, double-blind, placebo-controlled, parallel-group study of tirasemtiv in patients with ALS. The study consisted of a screening period, an open-label/lead-in period, and a double-blind treatment period. Following screening, eligible patients received open-label tirasemtiv, 125 mg BID, for 7 days. Patients who tolerated the 7-day lead-in period were randomized in a 1:1 ratio to tirasemtiv or placebo. Over the first 3 weeks of double-blind treatment, patients randomized to tirasemtiv had their TDD up-titrated as follows: 250 mg for 7 days, then 375 mg for 7 days, then 500 mg for 7 days. […] However, in such cases, dose escalation was re-attempted at least one additional time. The highest tolerable tirasemtiv dose for each individual patient was the dose that patient received for the remaining 9 weeks (i.e., the maximum tolerated dose [MTD] phase) of the study. Patients randomized to placebo underwent a corresponding dummy dose titration.
(§2) Randomization was stratified by riluzole use. […] Clinical assessments occurred every 4 weeks during double-blind treatment; patients also returned for follow-up evaluations at 1 and 4 weeks after their final dose of double-blind study medication (FIG. 1).
(§3) The secondary objectives included assessments of the effect of tirasemtiv versus placebo on measures of respiratory function (Maximum Voluntary Ventilation (MVV), Sniff Nasal Inspiratory Pressure (SNIP), SVC) and skeletal muscle function including handgrip fatigue and muscle-strength mega-score (i.e., the average z-score for muscle strength measurements across the following tested bilateral muscle groups: elbow flexion, wrist extension, knee extension, ankle dorsiflexion, and handgrip)). Secondary endpoints included the changes from baseline in each of the above mentioned measures (MVV, SNIP, SVC, and muscle-strength mega-score) for the Modified FAS, and the slope of each of the measures from baseline to Week 12 for the Modified FAS.
(§4) Eligible patients were males and females, 18 years of age and older, with a diagnosis of familial or sporadic ALS and meeting the World Federation of Neurology El Escorial criteria of definite ALS, probable ALS, laboratory-supported probable ALS, or possible ALS. Patients were to have an upright SVC>50% of predicted for age, height, and sex, a diminished, but measurable, maximum voluntary grip strength in at least one hand (i.e., between 10-50 pounds for females and 10-70 pounds for males), and at least 4 of the 12 ALSFRS-R questions were to have been scored as a 2 or 3. Patients were to be able to swallow tablets without crushing, and in the opinion of the investigator, were expected to do so for the duration of the study. If the patient needed a caregiver, the caregiver was to be able to observe the patient's status. Clinical laboratory results were to be either within their respective normal ranges or if outside the normal range, deemed not clinically significant by the investigator. […] Patients not taking riluzole prior to study entry were not permitted to take riluzole at any dose during the course of the study.
(§5) Safety data presented were based on the safety analysis set, defined as all patients who received at least 1 dose of double-blind study drug. Of the 605 randomized patients, 596 (295 placebo, 301 tirasemtiv) received at least 1 dose of double-blind study drug and were included in the safety analysis set. Data for the primary and secondary efficacy endpoints were analyzed with the Modified FAS. This analysis set included all patients who received at least 1 dose of double-blind study drug and had at least 1 efficacy assessment during the double-blind treatment period, and excluded 156 patients who were randomized in blocks containing patients affected by a study drug assignment error in which 58 patients randomized to and treated with double-blind tirasemtiv were dispensed double-blind placebo instead. […]

[3] = molecular target: T1, CYP 1A2 (Homo sapiens, UniProt P05177); conditions: cited from earlier work
T1 sequence (P05177 1-516): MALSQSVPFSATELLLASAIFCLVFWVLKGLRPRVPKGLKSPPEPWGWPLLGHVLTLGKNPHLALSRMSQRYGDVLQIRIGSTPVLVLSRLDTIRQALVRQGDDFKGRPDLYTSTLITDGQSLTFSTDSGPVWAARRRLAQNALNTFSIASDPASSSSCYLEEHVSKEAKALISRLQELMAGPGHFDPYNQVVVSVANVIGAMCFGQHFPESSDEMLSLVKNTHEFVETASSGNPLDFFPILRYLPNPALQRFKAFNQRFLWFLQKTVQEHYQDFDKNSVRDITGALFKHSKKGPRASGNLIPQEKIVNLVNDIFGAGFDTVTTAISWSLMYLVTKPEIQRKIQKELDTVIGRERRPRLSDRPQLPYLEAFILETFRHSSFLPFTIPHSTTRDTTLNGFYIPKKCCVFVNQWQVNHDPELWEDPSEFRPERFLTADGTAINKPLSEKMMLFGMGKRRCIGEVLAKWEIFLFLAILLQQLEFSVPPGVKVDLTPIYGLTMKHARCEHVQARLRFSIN

[4] = test system: patients with ALS; experiment: BENEFIT-ALS clinical trial: handgrip fatigue at 60% of target in the weaker hand; format: in vivo, human
Description: as §1, §2, §3, §4, §5

[5] = test system: patients with ALS; experiment: BENEFIT-ALS clinical trial: Maximum Voluntary Ventilation (MVV); format: in vivo, human
Description: as §1, §2, §3, §4, §5

[6] = test system: patients with ALS; experiment: BENEFIT-ALS clinical trial: Sniff Nasal Inspiratory Pressure (SNIP); format: in vivo, human
Description: as §1, §2, §3, §4, §5

[7] = test system: slow skeletal muscle troponin; conditions: cited from earlier work
[8] = BENEFIT-ALS clinical trial: body weight; format: in vivo; conditions: N=178
Description: as §1
Safety data presented were based on the safety analysis set, defined as all patients who received at least 1 dose of double-blind study drug. Of the 605 randomized patients, 596 (295 placebo, 301 tirasemtiv) received at least 1 dose of double-blind study drug and were included in the safety analysis set. Data for the primary and secondary efficacy endpoints were analyzed with the Modified FAS. This analysis set included all patients who received at least 1 dose of double-blind study drug and had at least 1 efficacy assessment during the double-blind treatment period, and excluded 156 patients who were randomized in blocks containing patients affected by a study drug assignment error in which 58 patients randomized to and treated with double-blind tirasemtiv were dispensed double-blind placebo instead. Based on these criteria, the Modified FAS consisted of 388 patients (210 placebo, 178 tirasemtiv).

C#Cc1cnc2nc(O)n(C(CC)CC)c2n1 [Tirasemtiv, 6-ethynyl-1-(pentan-3-yl)-1H-imidazo[4,5-b]pyrazin-2(3H)one]
Fatigability of muscle [1]: decreased fatigability of muscle | Muscle power [1]: increased muscle power | Muscle strength mega-score slope from baseline to Week 12 ([2]; Modified FAS N=178): −0.1104 | Muscle strength mega-score change from baseline (LS mean) ([2]; Week 4): −4.36 | Muscle strength mega-score change from baseline (LS mean) ([2]; Week 8): −7.43 | Muscle strength mega-score change from baseline (LS mean) ([2]; Week 12): −10.78 | Muscle strength mega-score difference in slope (tirasemtiv vs placebo) ([2]; p=0.0158): 0.1647 | Muscle strength mega-score decline versus placebo, in words ([2]; p=0.0158 for the difference in slope): declined more slowly | Effect on CYP 1A2 [3]: inhibited | Handgrip fatigue slope from baseline to Week 12 ([4]; Modified FAS N=178): 0.0458 | Handgrip fatigue at 60% of target in the weaker hand, change from baseline (LS mean) ([4]; Week 4, Modified FAS N=178): -1.77 s | Handgrip fatigue at 60% of target in the weaker hand, change from baseline (LS mean) ([4]; Week 8, Modified FAS N=178): 4.60 s | Handgrip fatigue at 60% of target in the weaker hand, change from baseline (LS mean) ([4]; Week 12, Modified FAS N=178): -0.57 s | Handgrip fatigue versus placebo, in words ([4]; human, in vivo): no statistically significant difference between treatment groups | Handgrip fatigue difference in slope (tirasemtiv vs placebo) ([4]; p=0.6372): 0.0332 | MVV slope from baseline to Week 12 ([5]; Modified FAS N=178): −0.0567 | MVV change from baseline (LS mean) ([5]; Week 4, Modified FAS N=178): -2.89 L/min | MVV change from baseline (LS mean) ([5]; Week 8, Modified FAS N=178): -2.14 L/min | MVV change from baseline (LS mean) ([5]; Week 12, Modified FAS N=178): -5.45 L/min | MVV versus placebo, in words ([5]; human, in vivo): no statistically significant difference between treatment groups | MVV difference in slope (tirasemtiv vs placebo) ([5]; p=0.8799): 0.0044 | SNIP slope from baseline to Week 12 ([6]; Modified FAS N=178): −0.053 | SNIP change from baseline (LS mean) ([6]; Week 4, Modified FAS N=178): −4.33 cm H2O | SNIP change from baseline (LS mean) ([6]; Week 8, Modified FAS N=178): −3.55 cm H2O | SNIP change from baseline (LS mean) ([6]; Week 12, Modified FAS N=178): −5.03 cm H2O | SNIP versus placebo, in words ([6]; p=0.012 and 0.050): statistically significantly greater decrease in SNIP at Weeks 4 and 8 | SNIP difference in slope (tirasemtiv vs placebo) ([6]; p=0.2108): −0.0312 | Effect on slow skeletal muscle troponin [7]: little effect | Weight change from baseline, LS mean ([8]; Week 4): -0.83 kg | Weight change from baseline, LS mean ([8]; Week 8): -1.30 kg | Weight change from baseline, LS mean ([8]; Week 12): -1.70 kg
